The text below walks through data of patent publication US11690852B2, “Reduction of the incidence or recurrence of breast cancer in postmenopausal women treated with intravaginal sex steroid precursor” (Endorecherche, Inc., priority 2020, dated 2023).

“Also recorded” adds a separate entry of the source.

In assay [1] the test system is breast cancer. Description: Retrospective cohort analysis of claims data: 1-year incidence of breast cancer (Objective A). It is filed as in vivo, women. The source says:
(§1) We set out to assess the 1-year incidence rate of breast cancer among women treated with prasterone compared to matched controls of untreated VVA women (Objective A). We also assessed the 1-year recurrence rate of breast cancer among women treated with prasterone with a history of breast cancer compared to matched controls of untreated VVA women (Objective B).
(§2) In order to evaluate whether total exposure to prasterone in the follow-up window alters the results of the primary objectives A and B, we used sensitivity analyses to stratify patients based on cumulative days of supply.
(§3) This retrospective cohort analysis was based on claims data from the Integrated Dataverse (IDV) database from Symphony Health Solutions. Data included in the analysis spanned a 5-year period from February 2015 through January 2020. For both objectives, the index date was defined as the first prasterone prescription fill date for treated women and as the initial VVA diagnosis date for untreated women (FIG. 1). Data were included from women who were at least 45 years of age and had at least one year of data available before and after the index date. Women treated with vaginal estrogen or ospem ifene were excluded. History of breast cancer prior to the index date was assessed. Before matching, 47,395 patients with at least one prescription of intravaginal prasterone (6.5 mg suppository) filled and no history of breast cancer were included and 2,986 with a history of breast cancer. Before matching again, 669,623 women were included in the pool of untreated VVA patients without a history of breast cancer, and 53,896 with a history of breast cancer (FIG. 2).
(§4) To ensure a balanced risk profile across treatment groups the women treated with prasterone were matched with a 1:1 ratio to untreated women based on the following parameters (FIG. 3): • Calendar year • Age • Prior to the index date: • Cancer diagnosis • Breast cancer diagnosis • Use of chemotherapy • Family history of breast cancer • Mammography • Use of estrogen therapy • Obesity and hyperlipidemia • Assessed during the 12 months prior to the index date • Charlson Elixhauser comorbidity index
(§5) Primary objectives A and B included all women meeting the inclusion criteria and having at least one prescription of prasterone filled. We then set minimum exposure thresholds to stratify patients based on the length of exposure. Thresholds were set at least 90 or 180 days of supply. Incidence (objective A) and recurrence (objective B) analyses were conducted in these new groups.

In assay [2] the test system is breast cancer. Description: Retrospective cohort analysis of claims data: 1-year recurrence of breast cancer in women with a history of breast cancer (Objective B). It is filed as in vivo.
From the text: as §1, §2, §3, §4, §5

In assay [3] the test system is breast intraepithelial neoplasia. The following applies: 5 mg/d for 3 years; 55% of women menopaused; cited from earlier work.
For assay [4], the system named is breast cancer. The following applies: postmenopausal women; testosterone supplements; cited from earlier work.
[5] abbreviates: all ages (≥45 years old), any days of supply.
[6] abbreviates: minimum exposure threshold either 90 days or 180 days of supply.

In the case of `C[C@]12CC[C@H](O)CC1=CC[C@@H]1[C@@H]2CC[C@]2(C)C(=O)CC[C@@H]12` [Intravaginal prasterone, dehydroepiandrosterone], the “% of incidence of breast cancer” value in the assay on breast cancer [1] (45 to 54 years old) is recorded as 0.34%; in the assay on breast cancer [1] (55 to 64 years old), 0.37%; in the assay with breast cancer [1] (65 years old and older), 0.58%; in the assay with breast cancer [1] (all ages (≥45 years old), any days of supply, 1-year, 6.5 mg suppository), 0.39%; in the assay on breast cancer [1] (at least 90 days of supply) it was 0.28%; with breast cancer [1] (at least 180 days of supply), 0.25%. Moreover, the “incidence ratio (prasterone / untreated VVA)” value was 0.85 in the assay with breast cancer [1] (45 to 54 years old); 0.87 in the assay on breast cancer [1] (55 to 64 years old); 1.03 in the assay with breast cancer [1] (65 years old and older); 0.89 in the assay on breast cancer [1] (setting [5]); 0.55 in the assay with breast cancer [1] (at least 90 days of supply); 0.48 in the assay on breast cancer [1] (at least 180 days of supply). Moreover, the “incidence of breast cancer compared to the untreated VVA group (in words)” value in the assay with breast cancer [1] (at least one prescription filled, all ages and age groups 45-54, 55-64, 65+) was “no statistically significant difference; also recorded: no statistical difference”. The “incidence of breast cancer compared to the untreated VVA groups (in words)” value with breast cancer [1] (setting [6]) is given as “significant reduction”. Moreover, the “% of recurrence of breast cancer” value came out at 41.63% with breast cancer [2] (45 to 54 years old); 31.42% in the assay on breast cancer [2] (55 to 64 years old); 32.77% in the assay on breast cancer [2] (65 years old and older); 34.21% in the assay with breast cancer [2] (all ages (≥45 years old), any days of supply, history of breast cancer). Besides, the “recurrence ratio (prasterone / untreated VVA)” value is recorded as 0.84 in the assay with breast cancer [2] (45 to 54 years old); 0.82 in the assay on breast cancer [2] (55 to 64 years old); 0.91 with breast cancer [2] (65 years old and older); 0.85 with breast cancer [2] (setting [5]); 0.83 in the assay with breast cancer [2] (at least 90 days of supply); 0.78 in the assay with breast cancer [2] (at least 180 days of supply). Besides, the “Recurrence analysis: % of incidence” value in the assay with breast cancer [2] (at least 90 days of supply) stood at 30.48%; in the assay on breast cancer [2] (at least 180 days of supply), 30.29%. The “recurrence of breast cancer compared to the untreated VVA group (in words)” value in the assay with breast cancer [2] (at least one prescription filled, all ages and three age groups) is “significantly lower; also recorded: significant reduction of recurrence”. For the same compound, the “recurrence of breast cancer compared to the untreated VVA groups (in words)” value in the assay on breast cancer [2] (setting [6]) is listed as “significant reduction”.

As for `CC/C(=C(\c1ccccc1)c1ccc(OCCN(C)C)cc1)c1ccccc1` [Tamoxifen], in assay [3], the “recurrence of breast intraepithelial neoplasia (in words)” value is given as “halve the recurrence of breast intraepithelial neoplasia”.

`C[C@]12CC[C@H]3[C@@H](CCC4=CC(=O)CC[C@@]43C)[C@@H]1CC[C@@H]2O` [testosterone]: the “breast cancer incidence (in words)” value in the assay with breast cancer [4] is listed as “reduction of the breast cancer incidence”.
